In PubChem BioAssay AID248 (DTP/NCI, 2004):
Inconclusive results and toxic doses are left out.

Test system: L1210 leukemia ip in BDF1 mice, survival T/C
Experiment: NCI In Vivo Anticancer Drug Screen. Data for tumor model L1210 Leukemia (intraperitoneal) in B6D2F1 (BDF1) mice
Conditions: endpoint: mean survival time, higher = longer survival
In short: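 Tumor was transplanted into mice, which were then dosed with test compound or vehicle alone. Survival was recorded for each group, and the treated figure was expressed relative to the control figure.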

[1] = dose: 100.0 mg/kg/injection, schedule: Q01DX009 (ip), vehicle: Klucel (hydroxypropylcellulose) (HPC)
[2] = dose: 100.0 mg/kg/injection, schedule: Q04DX003 (ip), vehicle: Klucel (hydroxypropylcellulose) (HPC)

O=NN(CCCl)C(=O)NCCc1cccc[n+]1[O-]
T/C (dose: 6.25 mg/kg/injection, schedule: Q01DX001 (ip), vehicle: water): 154 % of control
T/C (dose: 12.5 mg/kg/injection, schedule: Q01DX001 (ip), vehicle: water): 184 % of control
T/C (dose: 25.0 mg/kg/injection, schedule: Q01DX001 (ip), vehicle: water): 312 % of control

CC(=O)C(O)COP(=O)(O)O (stereo not given)
T/C (dose: 50.0 mg/kg/injection, schedule: Q01DX001 (ip), vehicle: saline): 96 % of control
T/C (dose: 100.0 mg/kg/injection, schedule: Q01DX001 (ip), vehicle: saline): 100 % of control
T/C (dose: 200.0 mg/kg/injection, schedule: Q01DX001 (ip), vehicle: saline): 102 % of control
T/C (dose: 400.0 mg/kg/injection, schedule: Q01DX001 (ip), vehicle: saline): 100 % of control

Cc1ccc(NC(=O)COc2cc(Cl)c(Cl)cc2Cl)cc1C
T/C (dose: 25.0 mg/kg/injection, schedule: Q01DX009 (ip), vehicle: saline with Tween-80): 89 % of control
T/C (dose: 50.0 mg/kg/injection, schedule: Q01DX009 (ip), vehicle: saline with Tween-80): 97 % of control
T/C (dose: 100.0 mg/kg/injection, schedule: Q01DX009 (ip), vehicle: saline with Tween-80): 89 % of control
T/C (dose: 400.0 mg/kg/injection, schedule: Q01DX009 (ip), vehicle: saline with Tween-80): 94 % of control

Cc1cccc(NS(=O)(=O)c2ccccc2)c1C
T/C [1]: 91 % of control
T/C [2]: 97 % of control
T/C (dose: 200.0 mg/kg/injection, schedule: Q01DX009 (ip), vehicle: Klucel (hydroxypropylcellulose) (HPC)): 91 % of control
T/C (dose: 200.0 mg/kg/injection, schedule: Q04DX003 (ip), vehicle: Klucel (hydroxypropylcellulose) (HPC)): 93 % of control
T/C (dose: 400.0 mg/kg/injection, schedule: Q01DX009 (ip), vehicle: Klucel (hydroxypropylcellulose) (HPC)): 98 % of control
T/C (dose: 400.0 mg/kg/injection, schedule: Q04DX003 (ip), vehicle: Klucel (hydroxypropylcellulose) (HPC)): 98 % of control

CC[N-]c1nncs1.CC[N-]c1nncs1.CC[N-]c1nncs1.CC[N-]c1nncs1.[Cl][Rh][Cl]
T/C (dose: 3.13 mg/kg/injection, schedule: Q04DX003 (ip), vehicle: distilled water + Tween-80): 101 % of control
T/C (dose: 6.25 mg/kg/injection, schedule: Q04DX003 (ip), vehicle: distilled water + Tween-80): 104 % of control
T/C (dose: 12.5 mg/kg/injection, schedule: Q04DX003 (ip), vehicle: distilled water + Tween-80): 98 % of control
T/C (dose: 25.0 mg/kg/injection, schedule: Q04DX003 (ip), vehicle: distilled water + Tween-80): 92 % of control
T/C (dose: 50.0 mg/kg/injection, schedule: Q04DX003 (ip), vehicle: distilled water + Tween-80): 93 % of control
T/C (dose: 100.0 mg/kg/injection, schedule: Q04DX003 (ip), vehicle: distilled water + Tween-80): 104 % of control

CCOP(=O)(OCC)Oc1ccc(SC)cc1
T/C (dose: 5.0 mg/kg/injection, schedule: Q01DX001 (ip), vehicle: saline): 96 % of control
T/C (dose: 10.0 mg/kg/injection, schedule: Q01DX001 (ip), vehicle: saline): 98 % of control

NC(N)=Nc1ccc(C(=O)Oc2ccc([N+](=O)[O-])cc2[N+](=O)[O-])cc1
T/C (dose: 25.0 mg/kg/injection, schedule: Q04DX003 (ip), vehicle: Klucel (hydroxypropylcellulose) (HPC)): 96 % of control
T/C (dose: 50.0 mg/kg/injection, schedule: Q01DX009 (ip), vehicle: Klucel (hydroxypropylcellulose) (HPC)): 94 % of control
T/C (dose: 50.0 mg/kg/injection, schedule: Q04DX003 (ip), vehicle: Klucel (hydroxypropylcellulose) (HPC)): 98 % of control
T/C [1]: 94 % of control
T/C [2]: 91 % of control

CN1C(=S)c2ccccc2S1(=O)=O
T/C (dose: 100.0 mg/kg/injection, schedule: Q04DX003 (ip), vehicle: saline with Tween-80): 106 % of control
T/C (dose: 200.0 mg/kg/injection, schedule: Q04DX003 (ip), vehicle: saline with Tween-80): 94 % of control
T/C (dose: 400.0 mg/kg/injection, schedule: Q04DX003 (ip), vehicle: saline with Tween-80): 92 % of control

S=C(Cc1ccc2ccccc2c1)N1CCN(c2ccccc2)CC1
T/C (dose: 100.0 mg/kg/injection, schedule: Q01DX001 (ip), vehicle: olive oil, sesame oil, peanut oil): 92 % of control
T/C (dose: 100.0 mg/kg/injection, schedule: Q04DX003 (sc), vehicle: olive oil, sesame oil, peanut oil): 100 % of control
T/C (dose: 200.0 mg/kg/injection, schedule: Q01DX001 (ip), vehicle: olive oil, sesame oil, peanut oil): 97 % of control
T/C (dose: 200.0 mg/kg/injection, schedule: Q04DX003 (sc), vehicle: olive oil, sesame oil, peanut oil): 111 % of control
T/C (dose: 400.0 mg/kg/injection, schedule: Q01DX001 (ip), vehicle: olive oil, sesame oil, peanut oil): 97 % of control
T/C (dose: 400.0 mg/kg/injection, schedule: Q04DX003 (sc), vehicle: olive oil, sesame oil, peanut oil): 107 % of control

COC(=O)C(=NO)C(=O)OC
T/C (dose: 100.0 mg/kg/injection, schedule: Q01DX009 (ip), vehicle: saline): 98 % of control
T/C (dose: 100.0 mg/kg/injection, schedule: Q04DX003 (ip), vehicle: saline): 93 % of control
T/C (dose: 200.0 mg/kg/injection, schedule: Q01DX009 (ip), vehicle: saline): 106 % of control
T/C (dose: 200.0 mg/kg/injection, schedule: Q04DX003 (ip), vehicle: saline): 95 % of control
T/C (dose: 400.0 mg/kg/injection, schedule: Q01DX009 (ip), vehicle: saline): 106 % of control
T/C (dose: 400.0 mg/kg/injection, schedule: Q04DX003 (ip), vehicle: saline): 96 % of control
